From article PMC10671360, “In Silico and In Vitro Study towards the Rational Design of 4,4′-Disarylbisthiazoles as a Selective α-Synucleinopathy Biomarker” (International Journal of Molecular Sciences, 2023)
“Also recorded” adds a separate entry of the source.

Key:
[1] = biological target: T1, recombinant α-syn fibrils (Homo sapiens, UniProt P37840); experiment: Competition binding assay against [^3H]DCVJ, α-syn fibrils; details: for Selectivity Aβ/α-syn / Selectivity tau/α-syn: ratio of Ki, [^3H]DCVJ was used; for Ki: [^3H]DCVJ was used (10 nM), α-synuclein aggregates 125 nM
T1 construct: made in house
Method: The incubation of purified recombinant α-synuclein monomer (10 mg/mL) obtained as described by Uzuegbunam was carried out in PBS (pH 7.4) at 37 °C. The solution was left shaking at 900 rpm in an Eppendorf Thermomixer for up to 84 h. Determination of the concentration of the formed fibrils (α-syn) was carried out following the centrifugation of the reaction vial at 12,000× g for 5 min. The pellet obtained was washed thrice with 20 mM of Tris-HCl, pH 7.4. The supernatants from the three centrifugation steps were combined, and the concentration of the monomer in the resulting supernatant was determined in a BCA assay (Thermo Fisher Scientific, Waltham, MA, USA) (with a BSA standard curve). Determination of the concentration of α-syn was carried out by subtracting the amount of α-synuclein monomer in the supernatant from the initial amount used for fibrillation.
(§1) The pellets of the fibrils obtained above (Section 4.2.1) were resuspended in 20 mM of Tris-HCl, pH 7.4 and diluted as needed for the binding assays.
(§2) A fixed concentration of [^3H]DCVJ (10 nM) and α-synuclein aggregates (125 nM), prepared as described above (Section 4.2.3), was used with different final concentrations of the DABTAs from 0.01 to 100 nM (see SI Figure S1). The experiment was carried out in quintuplicate for each concentration. The mixture was incubated for 2 h in a final volume of 200 μL per well after dilution with 20 mM of Tris-HCl, pH 7.4. The incubated mixtures were filtered through a Perkin Elmer GF/B glass filter via a TOMTEC cell harvester and immediately washed thrice with 1 mL of deionized water. The filters containing the bound ligands were dried and afterwards mixed with 3 mL of BetaPlate Scint solution (Perkin Elmer Life Sciences, Waltham, MA, USA) and left there for 2 h before counting in a Wallac 1450 MicroBeta TriLux Liquid Scintillation Counter (PerkinElmer Life Sciences, Waltham, MA, USA). For the determination of the inhibition constants, data were analyzed using GraphPad Prism software (version 7.0) to obtain IC50 values by fitting the data to the equation Y = bottom + (top − bottom)/(1 + 10(x − log IC50)). Ki values were calculated from IC50 values using the equation Ki = IC50/(1 + [radioligand]/Kd). […] Further protocol was carried out as for [^3H]DCVJ (see SI Figure S3).

Aβ1−42 fibrils = biological target: T2, Aβ1−42 fibrils (Homo sapiens, UniProt P05067); experiment: Competition binding assay against [^3H]PiB, Aβ1−42 fibrils; details: read-out: Ki Aβ
T2 construct: 1 mg of β-amyloid1–42 peptide (Abcam, Cambridge, UK); purchased Abcam
Method: After the dissolution of 1 mg of β-amyloid1–42 peptide (Abcam, Cambridge, UK) in 50 μL of DMSO, 925 μL of Milli-Q® water was added to it, and the mixture was stirred. Finally, 25 μL of 1M Tris HCl, pH 7.4 was added to bring the final peptide concentration to 1 mg/mL. The mixture was then left to incubate at 37 °C for 30 h with shaking at 900 rpm. To separate the non-aggregated monomers from the formed fibrils, the reaction mixture was centrifuged at 12,000× g for 5 min, and the resulting pellet was washed three times with 500 μL of 20 mM Tris-HCl, pH 7.4. The supernatants from the three centrifugation steps were combined, and the concentration of the monomer in the resulting supernatant was determined in a BCA assay (Thermo Fisher Scientific, Waltham, MA, USA) (with a BSA standard curve). Determination of the concentration of fibrils formed was carried out by subtracting the amount of β-amyloid1−42 peptide monomer in the supernatant from the initial amount used for fibrillation.
as §1, §2
Further procedures followed the same already described in Section 4.2.3.1 (See SI Figure S4).

tau fibrils = tau fibrils (Homo sapiens, UniProt P10636); experiment: Competition binding assay against [^3H]PiB, tau fibrils
Method: as §2, with “Recombinant tau monomer (R&D systems, Minneapolis, MN, USA) was dissolved in 20 mM of Tris HCl, pH 8.0, 100 mM of NaCl, 25 μM of low-MW heparin, and 0.5 mM of dithiothreitol to a final concentration of 300 µg/mL. The mixture was incubated with shaking at 900 rpm at 37 °C for 48 h. To separate the non-aggregated monomers from the formed fibrils, the reaction mixture was centrifuged at 12,000× g for 5 min, and the resulting pellet was washed three times with 500 μL of 20 mM Tris-HCl, pH 7.4. The supernatants from the three centrifugation steps were combined, and the concentration of the monomer in the resulting supernatant was determined in a BCA assay(Thermo Fisher Scientific, Waltham, MA, USA) (with a BSA standard curve). Determination of the concentration of fibrils formed was carried out by subtracting the amount of tau peptide monomer in the supernatant from the initial amount used for fibrillation. The pellets of the fibrils obtained above (Section 4.2.1) were resuspended in 20 mM of Tris-HCl, pH 7.4 and diluted as needed for the binding assays. A fixed” for “A fixed”, “Figure S3). […] Further procedures followed the same already described in Section 4.2.3.1 (See SI Figure S4).” for “Figure S3).”

[2] = biological target: T1, recombinant α-syn fibrils; experiment: Competition binding assay against [^3H]PiB, α-syn fibrils; details: for Selectivity Aβ/α-syn / Selectivity tau/α-syn: ratio of Ki, [^3H]PiB was used
[3] = Solubility in the incubation medium of the binding assays; type: physicochemical; details: incubation buffer of the binding assays

T2 sequence (P05067 672-713): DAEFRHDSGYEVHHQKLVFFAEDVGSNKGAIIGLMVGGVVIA
Chain of tau fibrils (P10636 2-758): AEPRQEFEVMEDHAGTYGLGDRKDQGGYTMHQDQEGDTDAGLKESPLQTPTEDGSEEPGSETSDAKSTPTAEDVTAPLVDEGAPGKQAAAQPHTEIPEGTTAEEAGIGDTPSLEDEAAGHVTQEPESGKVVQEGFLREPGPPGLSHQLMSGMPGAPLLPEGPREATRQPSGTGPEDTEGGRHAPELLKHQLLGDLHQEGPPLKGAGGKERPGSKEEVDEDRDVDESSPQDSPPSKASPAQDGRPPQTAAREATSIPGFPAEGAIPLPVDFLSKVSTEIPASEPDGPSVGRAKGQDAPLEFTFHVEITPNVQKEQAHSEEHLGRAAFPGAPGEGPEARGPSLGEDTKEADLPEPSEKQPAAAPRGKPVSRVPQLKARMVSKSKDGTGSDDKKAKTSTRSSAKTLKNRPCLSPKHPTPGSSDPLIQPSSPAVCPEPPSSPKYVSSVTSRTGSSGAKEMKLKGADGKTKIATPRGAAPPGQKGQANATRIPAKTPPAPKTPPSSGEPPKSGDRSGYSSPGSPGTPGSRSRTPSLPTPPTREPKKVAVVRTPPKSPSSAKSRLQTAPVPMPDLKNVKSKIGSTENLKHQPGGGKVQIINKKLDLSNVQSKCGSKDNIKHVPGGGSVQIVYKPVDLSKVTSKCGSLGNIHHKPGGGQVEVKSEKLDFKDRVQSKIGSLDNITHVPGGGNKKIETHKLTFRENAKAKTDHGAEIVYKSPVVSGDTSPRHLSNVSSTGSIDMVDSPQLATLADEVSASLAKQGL

Row | Compound | Selectivity Aβ/α-syn [1] | Selectivity tau/α-syn [1] | Ki (Aβ1−42 fibrils) [µM] | Ki (tau fibrils) [µM] | Ki [2] [µM] | Selectivity Aβ/α-syn [2] | Selectivity tau/α-syn [2] | Ki [1] [µM] | solubility in the incubation medium [3]
1 | COc1ccc(-c2csc(-c3nc(-c4ccc5c(c4)OCO5)cs3)n2)cc1F [d2, 4-(Benzo[d][1,3]dioxol-5-yl)-4′-(3-fluoro-4-methoxyphenyl)-2,2′-bithiazole] | 198.1 | >819.7 | 0.147 | 0.681 | 0.00232 | 63.4 | 293.4 | – | –
2 | COc1ccc(-c2csc(-c3nc(-c4cnc5c(c4)OCO5)cs3)n2)cc1F [d4, 6-(4′-(3-Fluoro-4-methoxyphenyl)-[2,2′-bithiazol]-4-yl)-[1,3]dioxolo[4,5-b]pyridine] | 417.1 | >1515.2 | 0.0874 | 0.364 | 0.00256 | 34.1 | 142.2 | – | –
3 | FCCOCCOCCOc1cnc(-c2csc(-c3nc(-c4ccc5c(c4)OCO5)cs3)n2)nc1 [f7, 4-(Benzo[d][1,3]dioxol-5-yl)-4′-(5-(2-(2-(2-fluoroethoxy)ethoxy)ethoxy)pyrimidin-2-yl)-2,2′-bithiazole] | – | – | 0.0764 | 0.242 | 0.00117 | 65.3 | 206.9 | 0.00151 | –
4 | FCCOCCOc1cnc(-c2csc(-c3nc(-c4cnc5c(c4)OCO5)cs3)n2)nc1 [f8, 6-(4′-(5-(2-(2-Fluoroethoxy)ethoxy)pyrimidin-2-yl)-[2,2′-bithiazol]-4-yl)-[1,3]dioxolo[4,5-b]pyridine] | – | – | – | – | 0.0023 | – | – | – | low solubility; also recorded: decreased solubility
5 | COc1ccc(-c2csc(-c3nc(-c4cnc5c(c4)OCO5)cs3)n2)cc1OCCOCCF [f9, 6-(4′-(3-(2-(2-Fluoroethoxy)ethoxy)-4-methoxyphenyl)-[2,2′-bithiazol]-4-yl)-[1,3]dioxolo [4,5-b]pyridine] | – | – | 0.0476 | 1.13 | 0.00096 | 49.6 | 1177.1 | 0.00084 | –
6 | FCCOCCOCCOc1ccc(-c2csc(-c3nc(-c4cnc5c(c4)OCO5)cs3)n2)cc1F [f10, 6-(4′-(3-Fluoro-4-(2-(2-(2-fluoroethoxy)ethoxy)ethoxy)phenyl)-[2,2′-bithiazol]-4-yl)-[1,3]dioxolo[4,5-b]pyridine] | – | – | 0.0373 | 0.615 | 0.00093 | 40.1 | – | 0.001 | –
7 | FCCOc1ccc(-c2csc(-c3nc(-c4ccc5c(c4)OCO5)cs3)n2)cc1 [f11, 4-(Benzo[d][1,3]dioxol-5-yl)-4′-(4-(2-fluoroethoxy)phenyl)-2,2′-bithiazole] | – | – | 0.0996 | 0.499 | 0.00371 | 26.9 | – | – | –
8 | FCCOCCOCCOc1ccc(-c2csc(-c3nc(-c4cnc5c(c4)OCO5)cs3)n2)cc1 [f12, 6-(4′-(4-(2-(2-(2-Fluoroethoxy)ethoxy)ethoxy)phenyl)-[2,2′-bithiazol]-4-yl)-[1,3]dioxolo[4,5-b]pyridine] | – | – | 0.0387 | 0.983 | 0.00092 | 42.1 | 1068.5 | – | –
9 | FCCOCCOCCOc1cnc(-c2csc(-c3nc(-c4cnc5c(c4)OCO5)cs3)n2)nc1 [f13, 6-(4′-(5-(2-(2-(2-Fluoroethoxy)ethoxy)ethoxy)pyrimidin-2-yl)-[2,2′-bithiazol]-4-yl)-[1,3]dioxolo[4,5-b]pyridine] | – | – | 0.0466 | 0.12 | 0.00038 | 122.6 | 315.8 | – | –
10 | COc1ccc(-c2csc(-c3nc(-c4ccc5c(c4)OCO5)cs3)n2)cc1OCCOCCOCCF [f14, 4-(Benzo[d][1,3]dioxol-5-yl)-4′-(3-(2-(2-(2-fluoroethoxy)ethoxy)ethoxy)-4-methoxyphenyl)-2,2′-bithiazole] | – | – | 0.21 | 0.662 | 0.00174 | 120.8 | 380.6 | – | –
11 | COc1cnc(-c2csc(-c3nc(-c4ccc5c(c4)OCO5)cs3)n2)nc1 [f15, 4-(Benzo[d][1,3]dioxol-5-yl)-4′-(5-methoxypyrimidin-2-yl)-2,2′-bithiazole] | – | – | 0.0593 | 0.707 | 0.00245 | 24.2 | 288.6 | – | –
12 | COc1ccc(-c2csc(-c3nc(-c4cnc5c(c4)OCO5)cs3)n2)cc1 [f17, 6-(4′-(4-Methoxyphenyl)-[2,2′-bithiazol]-4-yl)-[1,3]dioxolo[4,5-b]pyridine] | – | – | 0.167 | 0.513 | 0.00178 | 94.1 | 288.0 | – | –
13 | COc1ccc(-c2csc(-c3nc(-c4cnc5c(c4)OCO5)cs3)n2)cc1OC [f18, 6-(4′-(3,4-Dimethoxyphenyl)-[2,2′-bithiazol]-4-yl)-[1,3]dioxolo[4,5-b]pyridine] | – | – | – | – | 0.00499 | – | – | – | low solubility; also recorded: decreased solubility
14 | COc1ccc(-c2csc(-c3nc(-c4cnc5c(c4)OCO5)cs3)n2)c(OC)c1 [f19, 6-(4′-(2,4-Dimethoxyphenyl)-[2,2′-bithiazol]-4-yl)-[1,3]dioxolo[4,5-b]pyridine] | – | – | 0.149 | 0.671 | 0.00135 | 110.1 | 497.3 | – | –
15 | FCCOCCOc1ccc(-c2csc(-c3nc(-c4cnc5c(c4)OCO5)cs3)n2)c(OCCOCCF)c1 [f20, 6-(4′-(2,4-Bis(2-(2-fluoroethoxy)ethoxy)phenyl)-[2,2′-bithiazol]-4-yl)-[1,3]dioxolo[4,5-b]pyridine] | – | – | 0.221 | 0.815 | 0.00131 | 168.9 | 621.8 | – | –
